Experimental data published in paper PMC5564600 (Oncotarget, 2017).
Read-outs that look alike come from different tables or passages of the source.

Experiments:
Assay in all cases: biochemical
Type in all cases: binding
panel of 442 kinases [1] = molecular target: T1, panel of 442 kinases (Homo sapiens, UniProt Q86UE8); settings: kinase TLK2; for remaining activity at 1 µM: read-out: TLK2 (% of control at 1 µM)
T1 construct: purchased Ambit Biosciences (scanMAXX KINOMEscan)

panel of 442 kinases [2] = molecular target: T2, panel of 442 kinases (Homo sapiens, UniProt P00533, T790M); settings: EGFR(T790M); for remaining activity at 1 µM: read-out: % of control at 1 µM
T2 construct: purchased Ambit Biosciences (scanMAXX KINOMEscan)
T2 sequence (P00533 25-1210 T790M): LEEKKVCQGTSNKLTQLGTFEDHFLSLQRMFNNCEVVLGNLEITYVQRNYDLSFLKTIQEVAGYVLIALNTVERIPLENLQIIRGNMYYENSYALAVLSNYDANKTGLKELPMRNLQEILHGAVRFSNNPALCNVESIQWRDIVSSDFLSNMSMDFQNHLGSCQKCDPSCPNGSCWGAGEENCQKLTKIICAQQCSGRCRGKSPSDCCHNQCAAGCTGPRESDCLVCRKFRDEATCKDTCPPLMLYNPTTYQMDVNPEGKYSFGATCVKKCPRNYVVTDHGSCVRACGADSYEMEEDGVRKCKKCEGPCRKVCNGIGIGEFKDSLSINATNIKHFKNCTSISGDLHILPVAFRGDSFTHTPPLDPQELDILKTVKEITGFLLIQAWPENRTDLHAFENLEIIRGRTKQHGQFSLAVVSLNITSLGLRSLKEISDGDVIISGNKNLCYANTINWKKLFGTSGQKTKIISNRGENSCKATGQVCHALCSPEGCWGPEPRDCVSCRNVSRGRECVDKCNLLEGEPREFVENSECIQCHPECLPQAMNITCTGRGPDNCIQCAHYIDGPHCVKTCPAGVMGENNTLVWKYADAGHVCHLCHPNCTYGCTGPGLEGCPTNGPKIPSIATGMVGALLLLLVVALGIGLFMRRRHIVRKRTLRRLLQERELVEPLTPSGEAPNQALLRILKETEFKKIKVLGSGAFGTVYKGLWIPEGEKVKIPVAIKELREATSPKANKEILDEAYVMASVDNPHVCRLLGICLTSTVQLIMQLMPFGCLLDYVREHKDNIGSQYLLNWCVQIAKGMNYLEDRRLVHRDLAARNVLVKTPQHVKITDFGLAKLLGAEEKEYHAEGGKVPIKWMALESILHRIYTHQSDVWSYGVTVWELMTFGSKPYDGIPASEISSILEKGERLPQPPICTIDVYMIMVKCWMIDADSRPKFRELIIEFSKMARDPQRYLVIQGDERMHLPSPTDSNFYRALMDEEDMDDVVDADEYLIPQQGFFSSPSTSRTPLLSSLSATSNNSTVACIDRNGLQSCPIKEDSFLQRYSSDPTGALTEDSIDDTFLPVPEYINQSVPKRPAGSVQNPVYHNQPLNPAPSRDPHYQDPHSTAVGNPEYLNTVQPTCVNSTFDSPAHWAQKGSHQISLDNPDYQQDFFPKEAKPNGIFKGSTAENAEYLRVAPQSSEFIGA

panel of 442 kinases [3] = molecular target: T3, panel of 442 kinases (Homo sapiens, UniProt P07332); settings: FES; for remaining activity at 1 µM: read-out: % of control at 1 µM
T3 construct: purchased Ambit Biosciences (scanMAXX KINOMEscan)
T3 sequence (P07332 whole entry): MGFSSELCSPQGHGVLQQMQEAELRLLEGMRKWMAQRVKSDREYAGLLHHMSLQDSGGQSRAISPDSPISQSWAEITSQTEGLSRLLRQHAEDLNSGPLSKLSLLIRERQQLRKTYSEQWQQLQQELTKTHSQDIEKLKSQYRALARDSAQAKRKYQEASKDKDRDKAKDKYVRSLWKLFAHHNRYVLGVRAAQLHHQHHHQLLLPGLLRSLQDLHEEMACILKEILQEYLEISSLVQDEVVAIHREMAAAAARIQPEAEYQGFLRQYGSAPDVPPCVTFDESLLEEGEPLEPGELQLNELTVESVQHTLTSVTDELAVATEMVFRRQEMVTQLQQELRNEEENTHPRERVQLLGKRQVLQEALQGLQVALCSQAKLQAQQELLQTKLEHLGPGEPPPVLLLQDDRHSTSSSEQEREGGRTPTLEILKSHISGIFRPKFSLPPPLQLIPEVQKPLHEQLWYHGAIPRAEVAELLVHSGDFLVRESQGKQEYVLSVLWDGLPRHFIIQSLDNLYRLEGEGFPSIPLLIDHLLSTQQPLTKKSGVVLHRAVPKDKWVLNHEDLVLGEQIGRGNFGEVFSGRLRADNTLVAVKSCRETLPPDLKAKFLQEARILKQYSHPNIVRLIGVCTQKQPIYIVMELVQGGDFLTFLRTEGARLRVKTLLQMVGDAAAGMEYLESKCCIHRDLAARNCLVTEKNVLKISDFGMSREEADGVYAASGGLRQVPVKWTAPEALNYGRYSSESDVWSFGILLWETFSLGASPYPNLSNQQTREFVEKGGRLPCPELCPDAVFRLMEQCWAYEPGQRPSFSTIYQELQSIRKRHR

panel of 442 kinases [4] = molecular target: T4, panel of 442 kinases (Homo sapiens, UniProt P80192); settings: kinase MLK1; for remaining activity at 1 µM: read-out: % of control at 1 µM
T4 construct: purchased Ambit Biosciences (scanMAXX KINOMEscan)
T4 sequence (P80192 whole entry): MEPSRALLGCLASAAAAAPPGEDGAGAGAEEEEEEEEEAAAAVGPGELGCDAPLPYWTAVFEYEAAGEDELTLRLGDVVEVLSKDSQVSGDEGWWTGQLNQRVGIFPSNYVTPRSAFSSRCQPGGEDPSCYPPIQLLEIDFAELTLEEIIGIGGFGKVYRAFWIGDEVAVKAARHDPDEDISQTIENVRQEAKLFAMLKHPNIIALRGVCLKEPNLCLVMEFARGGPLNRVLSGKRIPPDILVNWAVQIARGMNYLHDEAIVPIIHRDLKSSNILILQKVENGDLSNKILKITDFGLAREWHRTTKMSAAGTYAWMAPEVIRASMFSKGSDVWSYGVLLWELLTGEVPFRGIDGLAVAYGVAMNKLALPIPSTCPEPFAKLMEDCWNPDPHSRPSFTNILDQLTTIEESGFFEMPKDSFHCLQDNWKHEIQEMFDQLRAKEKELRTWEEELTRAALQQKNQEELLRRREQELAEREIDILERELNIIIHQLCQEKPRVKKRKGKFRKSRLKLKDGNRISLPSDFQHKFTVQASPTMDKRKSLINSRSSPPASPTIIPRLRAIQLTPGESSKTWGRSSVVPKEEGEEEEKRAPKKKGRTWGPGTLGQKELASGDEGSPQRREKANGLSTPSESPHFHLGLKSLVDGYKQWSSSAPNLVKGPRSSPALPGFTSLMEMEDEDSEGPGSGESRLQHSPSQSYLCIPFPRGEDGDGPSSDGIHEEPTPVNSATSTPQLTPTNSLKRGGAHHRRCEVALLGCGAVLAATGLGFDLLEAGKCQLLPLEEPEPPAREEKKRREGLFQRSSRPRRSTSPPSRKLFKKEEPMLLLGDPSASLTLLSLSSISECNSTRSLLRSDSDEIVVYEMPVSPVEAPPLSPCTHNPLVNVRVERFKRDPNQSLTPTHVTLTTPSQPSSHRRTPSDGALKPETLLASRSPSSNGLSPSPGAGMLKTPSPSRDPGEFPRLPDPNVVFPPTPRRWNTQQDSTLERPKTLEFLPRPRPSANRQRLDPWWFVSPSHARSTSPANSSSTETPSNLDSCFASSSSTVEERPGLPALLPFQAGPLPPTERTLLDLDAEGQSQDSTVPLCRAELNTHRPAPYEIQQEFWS

panel of 442 kinases [5] = molecular target: T5, panel of 442 kinases (Homo sapiens, UniProt Q92630); settings: DYRK2; for remaining activity at 1 µM: read-out: % of control at 1 µM
T5 construct: purchased Ambit Biosciences (scanMAXX KINOMEscan)
T5 sequence (Q92630 1-601): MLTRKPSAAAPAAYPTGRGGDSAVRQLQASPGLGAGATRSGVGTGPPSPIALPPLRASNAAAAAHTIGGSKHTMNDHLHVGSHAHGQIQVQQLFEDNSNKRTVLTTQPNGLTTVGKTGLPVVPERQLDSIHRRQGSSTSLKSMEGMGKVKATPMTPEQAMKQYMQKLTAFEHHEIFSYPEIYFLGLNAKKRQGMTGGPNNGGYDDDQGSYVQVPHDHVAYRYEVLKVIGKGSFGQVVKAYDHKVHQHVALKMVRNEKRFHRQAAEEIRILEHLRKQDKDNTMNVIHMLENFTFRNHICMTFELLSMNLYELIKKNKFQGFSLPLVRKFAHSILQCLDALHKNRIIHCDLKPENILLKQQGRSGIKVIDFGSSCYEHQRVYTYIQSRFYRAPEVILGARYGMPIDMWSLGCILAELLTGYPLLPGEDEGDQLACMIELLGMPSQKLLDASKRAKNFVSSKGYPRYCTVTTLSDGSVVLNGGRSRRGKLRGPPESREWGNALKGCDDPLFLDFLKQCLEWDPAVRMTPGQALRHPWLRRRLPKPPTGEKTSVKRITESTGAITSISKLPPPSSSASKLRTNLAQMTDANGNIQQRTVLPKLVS

panel of 442 kinases [6] = molecular target: T6, panel of 442 kinases (Homo sapiens, UniProt Q9UF33); settings: EPHA6; for remaining activity at 1 µM: read-out: % of control at 1 µM
T6 construct: purchased Ambit Biosciences (scanMAXX KINOMEscan)
T6 sequence (Q9UF33 23-1036): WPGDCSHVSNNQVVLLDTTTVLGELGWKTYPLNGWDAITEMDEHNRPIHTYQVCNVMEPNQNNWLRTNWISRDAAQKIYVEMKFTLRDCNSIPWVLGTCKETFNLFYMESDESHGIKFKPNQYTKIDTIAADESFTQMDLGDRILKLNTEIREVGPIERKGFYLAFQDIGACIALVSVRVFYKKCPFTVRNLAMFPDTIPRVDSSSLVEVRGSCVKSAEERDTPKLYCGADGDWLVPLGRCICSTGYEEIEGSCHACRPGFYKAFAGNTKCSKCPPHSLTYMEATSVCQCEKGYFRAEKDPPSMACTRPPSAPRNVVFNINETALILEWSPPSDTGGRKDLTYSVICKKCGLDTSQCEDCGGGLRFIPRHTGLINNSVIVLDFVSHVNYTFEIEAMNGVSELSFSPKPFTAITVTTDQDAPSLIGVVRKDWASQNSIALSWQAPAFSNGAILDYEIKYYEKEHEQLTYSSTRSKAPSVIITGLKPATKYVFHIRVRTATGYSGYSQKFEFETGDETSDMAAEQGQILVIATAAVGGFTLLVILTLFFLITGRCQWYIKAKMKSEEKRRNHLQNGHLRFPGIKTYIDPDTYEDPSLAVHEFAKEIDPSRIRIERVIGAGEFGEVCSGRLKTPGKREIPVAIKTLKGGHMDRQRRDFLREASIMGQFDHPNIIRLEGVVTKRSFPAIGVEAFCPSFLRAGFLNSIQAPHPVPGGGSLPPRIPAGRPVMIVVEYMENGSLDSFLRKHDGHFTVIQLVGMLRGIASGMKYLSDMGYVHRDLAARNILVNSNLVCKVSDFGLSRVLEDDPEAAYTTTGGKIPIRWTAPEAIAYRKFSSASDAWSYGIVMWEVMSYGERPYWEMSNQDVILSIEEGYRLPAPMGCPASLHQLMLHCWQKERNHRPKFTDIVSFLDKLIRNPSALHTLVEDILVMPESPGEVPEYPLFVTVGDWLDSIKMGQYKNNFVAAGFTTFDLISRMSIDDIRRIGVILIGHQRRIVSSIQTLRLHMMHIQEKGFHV

panel of 442 kinases [7] = molecular target: T7, panel of 442 kinases (Homo sapiens, UniProt O75676)
T7 construct: purchased Ambit Biosciences (scanMAXX KINOMEscan)
T7 sequence (O75676 whole entry): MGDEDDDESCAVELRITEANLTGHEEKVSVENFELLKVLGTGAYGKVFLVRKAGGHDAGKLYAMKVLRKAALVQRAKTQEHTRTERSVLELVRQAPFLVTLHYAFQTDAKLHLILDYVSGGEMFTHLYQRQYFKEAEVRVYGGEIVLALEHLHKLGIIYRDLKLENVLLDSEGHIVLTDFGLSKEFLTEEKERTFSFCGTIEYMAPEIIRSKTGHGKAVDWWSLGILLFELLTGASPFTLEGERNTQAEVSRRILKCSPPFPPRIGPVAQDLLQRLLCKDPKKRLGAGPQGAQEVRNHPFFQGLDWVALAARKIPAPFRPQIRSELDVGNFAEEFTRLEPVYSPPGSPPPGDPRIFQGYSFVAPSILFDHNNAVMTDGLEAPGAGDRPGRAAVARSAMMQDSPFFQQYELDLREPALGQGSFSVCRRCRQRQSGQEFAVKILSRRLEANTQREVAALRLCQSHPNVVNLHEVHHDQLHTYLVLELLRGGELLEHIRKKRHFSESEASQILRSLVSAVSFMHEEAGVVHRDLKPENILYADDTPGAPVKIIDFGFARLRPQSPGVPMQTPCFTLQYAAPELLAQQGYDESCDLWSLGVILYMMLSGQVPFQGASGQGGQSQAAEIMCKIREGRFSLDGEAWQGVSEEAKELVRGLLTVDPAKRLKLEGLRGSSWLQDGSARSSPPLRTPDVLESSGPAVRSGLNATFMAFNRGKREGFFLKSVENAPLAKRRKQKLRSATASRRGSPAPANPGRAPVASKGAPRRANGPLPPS

panel of 442 kinases [8] = molecular target: T8, panel of 442 kinases (Homo sapiens, UniProt Q9UEW8); settings: kinase STK39; for remaining activity at 1 µM: read-out: STK39 (% of control at 1 µM)
T8 construct: purchased Ambit Biosciences (scanMAXX KINOMEscan)

panel of 442 kinases [9] = molecular target: T9, panel of 442 kinases (Homo sapiens, UniProt Q96BR1); settings: kinase SGK3; for remaining activity at 1 µM: read-out: SGK3 (% of control at 1 µM)
T9 construct: purchased Ambit Biosciences (scanMAXX KINOMEscan)
T9 sequence (Q96BR1 1-496): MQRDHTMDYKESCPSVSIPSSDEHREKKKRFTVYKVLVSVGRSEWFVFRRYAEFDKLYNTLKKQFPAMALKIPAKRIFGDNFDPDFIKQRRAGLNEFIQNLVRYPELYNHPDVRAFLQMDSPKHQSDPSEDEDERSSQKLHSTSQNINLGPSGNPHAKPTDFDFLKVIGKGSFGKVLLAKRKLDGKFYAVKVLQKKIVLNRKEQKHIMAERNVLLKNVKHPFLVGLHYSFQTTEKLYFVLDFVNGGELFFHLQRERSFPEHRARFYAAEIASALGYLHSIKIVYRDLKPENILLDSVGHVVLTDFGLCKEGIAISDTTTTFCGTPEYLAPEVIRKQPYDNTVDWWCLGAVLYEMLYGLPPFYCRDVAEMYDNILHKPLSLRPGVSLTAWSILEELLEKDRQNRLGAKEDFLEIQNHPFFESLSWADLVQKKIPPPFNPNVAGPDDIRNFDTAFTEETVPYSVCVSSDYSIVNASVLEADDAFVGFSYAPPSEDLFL

[10] = 10 µM, read-out: % of control at 10 µM
[11] = kinase RPS6KA4(Kin.Dom.1-N-terminal), read-out: RPS6KA4(Kin.Dom.1-N-terminal) (% of control at 1 µM)
[12] = kinase RPS6KA4(Kin.Dom.2-C-terminal), read-out: RPS6KA4(Kin.Dom.2-C-terminal) (% of control at 1 µM)

T1 sequence (Q86UE8 whole entry): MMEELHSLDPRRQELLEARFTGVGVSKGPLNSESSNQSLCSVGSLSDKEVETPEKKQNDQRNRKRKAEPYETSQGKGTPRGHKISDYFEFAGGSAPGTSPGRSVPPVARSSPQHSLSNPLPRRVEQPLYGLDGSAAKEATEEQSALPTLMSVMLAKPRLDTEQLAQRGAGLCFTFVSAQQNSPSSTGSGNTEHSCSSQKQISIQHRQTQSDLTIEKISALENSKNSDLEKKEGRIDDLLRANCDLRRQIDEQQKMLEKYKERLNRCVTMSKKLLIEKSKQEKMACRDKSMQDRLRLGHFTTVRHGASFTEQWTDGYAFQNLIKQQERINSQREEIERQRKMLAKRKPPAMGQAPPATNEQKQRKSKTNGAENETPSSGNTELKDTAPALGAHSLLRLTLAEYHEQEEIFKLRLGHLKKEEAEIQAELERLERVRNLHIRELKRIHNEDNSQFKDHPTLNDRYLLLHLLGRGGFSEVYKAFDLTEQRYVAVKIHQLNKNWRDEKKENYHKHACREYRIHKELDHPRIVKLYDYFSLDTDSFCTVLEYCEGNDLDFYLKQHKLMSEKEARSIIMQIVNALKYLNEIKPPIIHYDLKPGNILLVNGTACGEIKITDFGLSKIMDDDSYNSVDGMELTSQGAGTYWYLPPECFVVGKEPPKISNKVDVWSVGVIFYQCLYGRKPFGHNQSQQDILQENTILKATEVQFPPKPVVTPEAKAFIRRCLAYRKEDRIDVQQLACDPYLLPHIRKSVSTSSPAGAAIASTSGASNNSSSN

Structure (SMILES)	remaining activity at 1 µM (panel of 442 kinases [1])	remaining activity at 10 µM (panel of 442 kinases [1]; 10 µM, read-out: TLK2 (% of control at 10 µM))	remaining activity at 1 µM (panel of 442 kinases [2])	remaining activity at 10 µM (panel of 442 kinases [2]; [10])	remaining activity at 1 µM (panel of 442 kinases [3])	remaining activity at 10 µM (panel of 442 kinases [3]; [10])	remaining activity at 1 µM (panel of 442 kinases [4])	remaining activity at 10 µM (panel of 442 kinases [4]; [10])	remaining activity at 1 µM (panel of 442 kinases [5])	remaining activity at 10 µM (panel of 442 kinases [5]; [10])	remaining activity at 1 µM (panel of 442 kinases [6])	remaining activity at 10 µM (panel of 442 kinases [6]; [10])	remaining activity at 1 µM (panel of 442 kinases [7]; [11])	remaining activity at 10 µM (panel of 442 kinases [7]; kinase RPS6KA4(Kin.Dom.1-N-terminal), read-out: RPS6KA4(Kin.Dom.1-N-terminal) (% of control at 10 µM))	remaining activity at 1 µM (panel of 442 kinases [7]; [12])	remaining activity at 10 µM (panel of 442 kinases [7]; kinase RPS6KA4(Kin.Dom.2-C-terminal), read-out: RPS6KA4(Kin.Dom.2-C-terminal) (% of control at 10 µM))	remaining activity at 1 µM (panel of 442 kinases [8])	remaining activity at 10 µM (panel of 442 kinases [8]; 10 µM, read-out: STK39 (% of control at 10 µM))	remaining activity at 1 µM (panel of 442 kinases [9])	remaining activity at 10 µM (panel of 442 kinases [9]; 10 µM, read-out: SGK3 (% of control at 10 µM))
Nc1cc(C(F)(F)F)c(-c2cc(N3CCOCC3)nc(N3CCOCC3)n2)cn1 [Buparlisib]	100%	100%	73%	69%	100%	100%	92%	99%	80%	100%	93%	100%	83%	100%	94%	100%	93%	100%	79%	100%
Cn1c(=O)n(-c2ccc(C(C)(C)C#N)cc2)c2c3cc(-c4cnc5ccccc5c4)ccc3ncc21 [Dactolisib, 2-methyl-2-[4-(3-methyl-2-oxo-8-quinolin-3-yl-2,3-dihydroimidazo[4,5-c]quinolin-1-yl)-phenyl] propionitrile]	93%	–	100%	–	92%	–	86%	–	67%	–	94%	–	100%	–	100%	–	100%	–	100%	–
COc1ncc(-c2ccc3nccc(-c4ccnnc4)c3c2)cc1NS(=O)(=O)c1ccc(F)cc1F [Omipalisib]	100%	–	100%	–	100%	–	100%	–	88%	–	100%	–	100%	–	97%	–	76%	–	92%	–
FC(F)c1nc2ccccc2n1-c1nc(N2CCOCC2)nc(N2CCOCC2)n1 [ZSTK474, 2-(difluoromethyl)-1-[4,6-di(4-morpholinyl)-1,3,5-triazin-2-yl]-1H-benzimidazole]	100%	–	100%	–	100%	–	99%	–	78%	–	88%	–	100%	–	100%	–	95%	–	87%	–
